Data on two compounds can be found in the NIST ThermoML archive (doi:10.1021/je5005559).

Numbers after ± are expanded uncertainties.

A short description of data set [1]: refractive index (Na D-line) (dimensionless). The following applies: 298.15 K; 101.33 kPa; Liquid; Standard Abbe refractometry.
Data set [2] is described as follows: Boiling temperature at pressure P. The following applies: 101 kPa; Liquid; Distillation.
For data set [3] the following is noted: for mass density: 298.15 K, 101.33 kPa.

One may read the refractive index as a measure of how strongly the sample bends light. The mass density is the mass of a sample divided by its volume. For `CC(=O)CC(C)C` [4-methylpentan-2-one], the refractive index in data set [1] is recorded as 1.3965 ± 0.0008. The “Boiling temperature at pressure P” value in data set [2] amounted to 116.60 ± 0.2 °C. Also, the mass density in data set [3] (Liquid, Vibrating tube method) amounted to 799 ± 2 kg/m3.

`Oc1ccccc1O` [1,2-benzenediol]: the mass density in data set [3] (Crystal, Pycnometric method) came out at 1346 ± 3 kg/m3. The Normal melting temperature in data set [3] (Crystal, visual observation) is 105.70 ± 1.1 °C.
